The values that follow come from patent US11224614B2, “Compositions and methods for increasing iron intake in a mammal” (Solvotrin Therapeutics Limited, priority 2014, dated 2022).

Data set [1] can be described thus: In-vivo gastrointestinal tolerability (modified GSRS, Bristol Stool Chart), cross-over. The following applies: modified GSRS 0-3, Bristol Stool Chart; p=0.02 and p=0.03. Details: species or system human. The protocol:
In a separate study using random, blinded, prospective allocation to beads prepared in accordance with the invention or FeSO4.7H2O in identical size 0 gelatin capsules, in-vivo gastrointesinal tolerability was assessed in a cross-over design. The test articles were taken in the morning after fasting for 10 hours with baseline and 2 hour fasting blood draws. After 2 hours fasting, food was taken as normal and over the following 24 hours, a modified Gastrointestinal Symptom Rating Scale (GSRS) was completed. This rates the following symptoms as 0=none, 1=mild, 2=moderate, 3=severe: • Abdominal pain/cramps • Nausea/vomiting • Abdominal bloating • Borborygmus (abdominal rumbling) • Flatulence/wind
In addition the products were taken on 3 consecutive days and the Bristol Stool Chart was used to assess constipation/diarrhoea. Positive score changes from baseline normality (=0) indicated constipation.

Data set [2] is described as follows: Simulated intestinal dissolution, pH 6.6 with pancreatin and bile acids. It is filed as physicochemical. The following applies: pH 6.6 over 1 hour, FIG. 5. On the procedure: A solution of iron (II) sulfate in water (10 mM) was serially diluted using pH 1.8 KCl buffer. Aliquots (100 μl) of the diluted solutions were added to a 96-well plate containing 100 μl of 1,10-phenanthroline (5 mM). The plate was read at 490 nm on a multiwall plate reader in order to construct a calibration curve. Dissolution samples were diluted ten-fold typically at pH 1.6 into phenanthroline (5 mM) and the samples read rapidly under N2 blanketing.
A 50 mg quantity of beads was transferred to a vial containing 10M HCl (10 ml) and left overnight at room temperature. The resulting solution was shaken and then a 100 μl aliquot was transferred into 900 μl of 10M HCl. A 100 μl aliquot of the diluted solution was added to a 96-well plate containing 1M sodium thiocyanate (100 μl). Absorbance was measured at 450 nm on a multiwell plate reader. The concentration of the iron III was estimated by reference to a series of iron III standard solutions.
An accurately weighed sample (approximately 50 mg) of microbeads was transferred into a three necked vessel into which had been placed 15 ml pH 6.6 buffers (containing 0.1 M sodium bicarbonate, 10 mg/ml bile acid extract, 1.85 mg/ml pancreatin, adjust to pH 6.6 with 1M HCl) at 37° C. Generally, at 1, 15, 30, 45, 60 and occasionally at 90, 120 min time points, samples were taken for iron (II) and iron (III) measurement. […]

A short description of data set [3]: In-vivo efficacy: randomised double-blind cross-over, serum iron over 0-6 hours in fasting subjects. The following applies: primary endpoint, p=0.017.
Procedure: We evaluated the formulation in a randomised, double-blind, controlled with a 28 day cross-over to obtain a minimum of 6 paired evaluable healthy subjects with serum ferritin <100 ng/mL for comparison of the invention versus FeSO4.
In the analyses, comparisons between groups were conducted using paired sample t-tests for continuous variables and Wilcoxon's Rank Order tests for non-normal distributions. Shapiro-Wilks tests for normality were used to confirm assumptions that primary and secondary endpoints in the study population come from a normal distribution. If assumptions of normality were not possible, log-transformation was used or Wilcoxon's Rank Order tests were applied.
Subjects returned to the study site (within two weeks of Visit 1) for the first intervention day (Visit 2), after fasting since 10 pm the previous night. Subjects were pre-randomised into one of the two treatment groups with a washout period of four weeks between treatment phases: • Group 1: beads prepared in accordance with the invention, followed by FeSO4 • Group 2: FeSO4, followed by beads prepared in accordance with the invention
A blood sample was collected immediately after drinking the supplement and at 2 hours, 4 hours and 6 hours after dosing. […] Ferritin and haemoglobin were also assessed. […]

On to ferrous sulfate [FeSO4], for which the “symptoms scores for abdominal pain/cramps, nausea, flatulence and constipation” value in data set [1] is “Significantly higher symptoms scores”. For the same substance, in data set [2], the “iron II and total iron (ferrous and ferric) profile in dissolution” value is “undergoes oxidation and precipitates as ferric hydroxides”. Moreover, the “serum iron Trough to Peak Differential (TPD) over 0-6 hours, median” value in data set [3] worked out at 9.7 µmol/L.
